Measurements reported in a melting point compilation (Tetko et al.; mined from patent text by program, amines drawn as free bases though some values may be those of a salt).

SMILES	melting point
COc1ccc2c(c1)c1c3c(c(-c4ccccc4Cl)cc1n2C(C)=O)C(=O)NC3=O	277 to 280 °C
O=C(O)C1CCc2c(Cc3ccc(Cl)cc3)cccc21 (stereo not drawn)	127 to 129 °C
CC(=O)c1ccc(Cn2c3c(c4cc(F)cc(F)c42)CCCC3CC(=O)O)cc1 (stereo not drawn)	163 to 164 °C
CCCCNc1nc2cnnc(Cl)c2cc1C(=O)OCC	127 °C
O=C(Nc1ccc(-c2ncc(-c3ccc(NC(=O)C4CCCCCC4)cc3)[nH]2)cc1)c1cccnc1	326 to 328 °C
CC(=O)Nc1noc(C)c1Cl	121 to 122 °C
COC(=O)CS(=O)(=O)c1ccccc1C(=O)OC	102 to 103 °C
O=C1CCC(c2ccc(CCCCN3CCN(c4ccc(F)cc4)CC3)cc2)N1 (stereo not drawn)	136 to 137 °C
O=C(O)c1ccc2ccc(C(F)(F)F)nc2c1O	209 to 211 °C
CN(C)CC(=O)OCC1CC(c2ccc(-c3ccc(N4C[C@H](Cn5ccnn5)OC4=O)cc3F)cn2)=NO1 (stereo partly drawn)	185 to 198 °C
COc1ccc(C=O)cc1OCc1nc(-c2ccco2)oc1C	125 to 126 °C
CC(C)(C)c1cc(C=O)cc(Br)c1O	126 °C
CC(=O)c1ccc(CNC(=O)C(F)(F)F)s1	83 to 84 °C
Cc1cc(C(F)(F)F)nc2nc(N)ccc12	255 to 257 °C
Cc1cc(=O)c(Oc2ccccc2C)c(-c2ccc(S(C)(=O)=O)cc2)o1	168 °C
CN(C)Cc1c[nH]c2c(F)cccc12	133 to 137 °C
CCN(Cc1ccccc1)c1nc(=O)c2cc(C(F)(F)F)cc([N+](=O)[O-])c2s1	94 to 97 °C
O=[N+]([O-])c1ccc(NCCF)nc1	126 to 127 °C
CCOC(=O)Cc1ccc(OCCCN2CCC(C(O)(c3ccc(F)cc3)c3ccc(F)cc3)CC2)c(OC)c1	110 to 112 °C
CC(Cl)(Cl)C(NC(=O)c1cc(Cl)cc(Cl)c1)NC(=NS(=O)(=O)C(F)(F)F)Nc1cccnc1 (stereo not drawn)	213 to 215 °C
C=Cc1ccccc1C1C(C(=O)OC)=C(C)NC(C)=C1C(=O)OC	140 to 148 °C
C[C@@H](CO)Oc1ccc2cc(Br)ccc2c1	71 to 72 °C
CS(=O)c1ccc(C(=O)CCCCCC#N)cc1 (stereo not drawn)	58.5 to 60.5 °C
CC(C)OC(=O)C=CC1C(C(=O)O)C1(C)C (stereo not drawn)	98 °C
C[C@@H](NC(=O)C1(C)CC1)c1ccc2ccccc2c1	91 °C
COC(=O)c1cc(CCNc2ncnc3nccnc23)ccc1Oc1cc(C(F)(F)F)ccn1	171 to 172 °C
Fc1ncnc(Oc2ccccc2)c1F	65 to 66 °C

SMILES	melting point
C#CCC(C)(C(=O)O)C(=O)O	135 °C
COc1ccccc1NC(=O)Nc1ccc(CC(=O)OC(C)(C)C)cc1C	157 to 158 °C
O=c1n(CCCN2CCN(c3ccccc3)CC2)nc2n1-c1ccccc1OC2	94 to 96 °C
COc1ccc2[nH]cc(C=C[N+](=O)[O-])c2c1	151 to 152 °C
Cn1c(=O)nc(-c2ccccc2Cl)c2cc(Cl)sc21	164 to 166 °C
CC(C)(O)CC(N)C1(c2ccc(Cl)cc2)CCC1 (stereo not drawn)	60 to 62 °C
CCOC(C)O[C@H]1C(=O)N(C(=O)OCc2ccccc2)[C@H]1c1ccccc1 (stereo partly drawn)	58 to 60 °C
Cc1ccc2c(c1)[C@@H]1CN(C)CC[C@@H]1CC2=O (relative stereo)	> 250 °C
Cc1nnc(N2N=C(c3ccc(Cl)cc3)c3cc4c(cc3C[C@H]2C)OCO4)s1	105 to 108 °C
N#C/C(=C\c1cc(O)c(O)c(I)c1)C(=O)NCc1ccccc1	220 °C
O=C(CC1CCOCC1)Nc1cccc2nc(N[C@@H]3CCc4ccccc43)ccc12	211 °C
CC1(c2ccc(N)cc2)C(=O)Nc2cc(Cl)ccc2C1=O (stereo not drawn)	155 to 156 °C
Cn1ccc2cc(-c3cc4nccnc4[nH]3)ccc21	260 to 265 °C
CN1CC(NC(=S)NC(=O)c2ccccc2)CC2c3cccc4[nH]cc(c34)CC21 (stereo not drawn)	224 to 225 °C
O=C1Cc2ccccc2Sc2cc(C(F)(F)F)c(Cl)cc21	123 to 124 °C
CCCc1nc2c(N)nc3ccccc3c2n1CCc1cc(-c2ccc(F)cc2)no1	208 to 209 °C
O=C1NCC=NN1c1cc(C(F)(F)F)cc(Cl)n1	197 to 198 °C
COCOCC#Cc1nc(-c2ccc(=O)n(C(C)C)n2)c(-c2ccccc2)nc1N	133 to 135 °C
COc1ccc(C(=O)Cc2cccnc2)cc1	71 to 72 °C
CO/C=C(/C(=O)OC)c1ccccc1COc1cccc(N2CCCCC2)c1	64 to 66 °C
CN1CCc2c(-c3ccc(F)cc3)ccc([N+](=O)[O-])c2C1	140 to 143 °C
CC(C)C1N(CC(N)=O)C(=O)CN1C(=O)CCl (stereo not drawn)	163 °C
Cc1cc2c3c(cc(C)c2[nH]c1=O)CC(CBr)O3 (stereo not drawn)	277 to 278 °C
CS(=O)(=O)c1ccc(OCC2CCN(CC3CC3)CC2)cc1	134 to 135 °C
O=C(O)Cc1cccc(C(=O)c2ccc(Cl)cc2)c1	148 °C
O=C(O)CCc1cn(Cc2cccc(C(=O)NCCc3ccccn3)c2)nc1-c1ccccc1	166 to 167 °C
